# “Also recorded” adds a separate entry of the source. Where two headings read alike, the source gives them in different places. Marks after values point to notes of the source that are not given here. Ends that are not written are not given here.
# Test: Toxicology study of VD in canines: 5-day continuous subcutaneous infusion, plasma VD by radioimmunoassay, clinical observations
# Type: in vivo
# Conditions: for half-life / AUC(0-t) / AUC / Tmax / Cmax / t1/2: beagle; for AUC(0-t): data through 122 hours; for average steady state peak concentrations: n=1 per sex
# Procedure: VD was administered to canines via a subcutaneous delivery route. The dosing was performed at a high level to assess the toxicity of VD and to determine if a lethal dosing amount of the VD can be reached by subcutaneous administration.
# VD was administered subcutaneously to canines using a Medtronic Paradigm® infusion pump (model MMT772) over a period of 5 days. VD was obtained as an acetate salt (VD-acetate) from Bachem (lot 2502022) and prepared in Tris/Glycerin/m-cresol buffer at a concentration of 15 mg/mL. The Tris/Glycerin/m-cresol buffer was prepared by mixing 16.0 g glycerol, 6.05 g tris-(hydroxymethyl)-aminomethane (“Tris”), 2.50 g meta cresol in a 1.00 L volumetric flask. Approximately 900 mL nanopure water was added to the volumetric flask and the mixture was magnetically stirred to reach complete dissolution. 4 normal hydrochloric acid was used to adjust pH to […] at 25° C.
# VD was administered to one male and one female beagle canine at varying dosing amounts. Each canine received a first dosage level for 5 consecutive days followed by a 2-day washout period. Then, the same canines received a second, higher dosage level for an additional 5 consecutive days.
# Prior to the beginning of dosing with VD (Day 0), the canines were placed in a sling and the dose site on the dorsolateral thorax was shaved. The shaved area was swabbed with 70% isopropyl alcohol and allowed to dry. DuraPrep™ (3M) was then applied and allowed to dry for 3 minutes. The catheter of the infusion set (Medtronic Silhouette Paradigm® Infusion Set MMT-378) was placed subcutaneously and perpendicular to the spine, and attached to the skin. The extension set was then attached to a previously weighed reservoir filled with VD at a concentration of 15 mg/mL in the Tris/Glycerin/m-cresol buffer. The reservoir was inserted into the pump located in a jacket pocket and dosing was commenced. The jacket was then secured and a collar was placed on each canine. Every day during the 5-day period, the reservoirs were exchanged with new filled reservoirs at approximately the same time each day.
# At the end of the first 5-day dosing period, the infusion sets and jackets were removed, the area where the catheter was placed was marked, and the animals were allowed a 2-day washout period prior to the next treatment. For the next treatment at the second dosing amount, a new infusion site was chosen on the skin, and the pump was prepared as before.
# The daily dosage level during the first 5-day period (Group 1) was 1.44 mg/(kg·day) (or 1000 ng/(kg·min)) for each canine corresponding with a dosage volume of 0.096 ml/(kg·day). The total dose delivered to each canine over the first 5-day period was 7.20 mg/kg. […] Following the 2-day washout period, the daily dosage level was increased to 2.88 mg/(kg·day) (or 2000 ng/(kg·min)) for each canine corresponding with a dosage volume of 0.192 ml/(kg·day) during the second 5-day period (Group 2). The total dose delivered to each canine over the second 5-day period was 14.4 mg/kg.
# All animals were observed twice daily during the first and second 5-day periods for mortality and moribund appearance. Clinical examinations were also performed daily for the animals after dosing began. Detailed physical examinations were conducted on Day 0 prior to dosing and on study Day 5 after the pumps and jackets were removed from the canines. Individual body weights were recorded twice weekly during a 7-day pretest period, on study Day 0 prior to dosing and study Day 5 after the pumps and jackets were removed from the canines. Body weights and body weight changes were calculated for the corresponding intervals. Individual food consumption was recorded daily during the pretest period and throughout the study.
# Blood samples for determination of plasma drug concentration were collected at 2, 4, 24 and 96 hours after the beginning of infusion, immediately prior to the end of infusion on Day 5, and 0.5, 1, 1.5, and 2 hours after the end of dosing. […]
sequence,measurement,setting,value
"EVVPPQVLSEPNEEAGAALSPLPEVPPWTGEVSPAQR [VD, Vessel Dilator]",half-life,"dog, in vivo, t1/2",0.735 h
same,AUC(0-t),"dog, in vivo, female canine, 1.44 mg/kg/day (7.20 mg/kg), SC infusion 5 days",34700 ng·h/mL
same,AUC,"dog, in vivo, female canine, 1.44 mg/kg/day (7.20 mg/kg), SC infusion 5 days, τ 120 hours, read-out: AUCτ (AUGτ [sic])",34400 ng·h/mL
same,Tmax,"dog, in vivo, female canine, 1.44 mg/kg/day (7.20 mg/kg), SC infusion 5 days, hours after start of infusion, read-out: Tmax",96 h
same,AUC,"dog, in vivo, female canine, 2.88 mg/(kg·day), maximum tolerated dose not determined, read-out: AUC that a maximum tolerated dose would exceed",> 63300 ng·h/mL
same,Cmax,"dog, in vivo, female canine, 2.88 mg/(kg·day), maximum tolerated dose not determined, read-out: Cmax that a maximum tolerated dose would exceed",> 579 ng/mL
same,AUC(0-t),"dog, in vivo, female canine, 2.88 mg/kg/day (14.4 mg/kg), SC infusion 5 days",64100 ng·h/mL
same,AUC,"dog, in vivo, female canine, 2.88 mg/kg/day (14.4 mg/kg), SC infusion 5 days, τ 120 hours, read-out: AUCτ (AUGτ [sic])",63300 ng·h/mL
same,Tmax,"dog, in vivo, female canine, 2.88 mg/kg/day (14.4 mg/kg), SC infusion 5 days, hours after start of infusion, read-out: Tmax",96 h
same,Cmax,"dog, in vivo, female canine, 2.88 mg/kg/day (14.4 mg/kg), SC infusion 5 days, read-out: Cmax",579 ng/mL
same,Tmax,"dog, in vivo, female canine, both dosages, after start of infusion, read-out: Tmax",~96 h
same,AUC(0-t),"dog, in vivo, male canine, 1.44 mg/kg/day (7.20 mg/kg), SC infusion 5 days",31200 ng·h/mL
same,AUC,"dog, in vivo, male canine, 1.44 mg/kg/day (7.20 mg/kg), SC infusion 5 days, τ 120 hours, read-out: AUCτ (AUGτ [sic])",30800 ng·h/mL
same,AUC,"dog, in vivo, male canine, 2.88 mg/(kg·day), maximum tolerated dose not determined, read-out: AUC that a maximum tolerated dose would exceed",> 58200 ng·h/mL
same,Cmax,"dog, in vivo, male canine, 2.88 mg/(kg·day), maximum tolerated dose not determined, read-out: Cmax that a maximum tolerated dose would exceed",> 655 ng/mL
same,AUC(0-t),"dog, in vivo, male canine, 2.88 mg/kg/day (14.4 mg/kg), SC infusion 5 days",58900 ng·h/mL
same,AUC,"dog, in vivo, male canine, 2.88 mg/kg/day (14.4 mg/kg), SC infusion 5 days, τ 120 hours, read-out: AUCτ (AUGτ [sic])",58200 ng·h/mL
same,"survival and adverse effects on weight, food consumption or behavior","both canines, 1.44 then 2.88 mg/(kg·day), 5 days each","survived to the scheduled study termination without appreciable adverse effects on weight, food consumption or behavior"
same,half-life,"both sexes, dog, in vivo, calculated half-life for elimination of Vessel Dilator in plasma",0.7 to 1.2 h
same,Tmax,"both sexes, dog, in vivo, sc",108 h
same,average steady state peak concentrations,"canines, 1000 ng/kg·min constant SC dosing 5 days",257 to 287 ng/mL
same,average steady state peak concentrations,"canines, 2000 ng/kg·min constant SC dosing 5 days",485 to 527 ng/mL
same,tolerance and toxicological effects of continuous subcutaneous infusion,"canines, up to 2.88 mg/(kg·day)",high tolerance and no noticeable toxicological effects; also recorded: well-tolerated
same,maximum tolerated dose for prolonged subcutaneous administration,"canines, expected",> 2000 ng/kg·min
same,effects on body weight,"dog, in vivo",no effects on body weight
same,effects related to food consumption,"dog, in vivo",no effects related to food consumption
same,fluctuation of plasma concentrations of VD,"dog, in vivo",approximately 30%
same,potential VD administration-related clinical observations,"dog, in vivo",reddened ears and/or reddened gums
same,systemic exposure to VD (AUCτ and Cmax) versus dosage,"dog, in vivo, 2.88 mg/kg/day",increased proportionally with the increase in dosage
same,plasma concentration up to which no toxicity issues were shown,"dogs, continuous five day subcutaneous infusion",~500 ng/mL
same,t1/2,"female, dog, in vivo, sc",1.21† h
same,half-life,"female, dog, in vivo, sc, t1/2",0.801 h
same,Tmax,"male, dog, in vivo",120 h
same,Tmax,"male, dog, in vivo, sc",120 h
same,t1/2,"male, dog, in vivo, sc",0.793† h
same,half-life,"male, dog, in vivo, sc, t1/2",0.735 h

# Reference: patent US9616107B2, “Therapy for kidney disease and/or heart failure” (priority 2011, dated 2017)
